From the NIST ThermoML archive (doi:10.1016/j.jct.2017.11.007)

Test: mn = molality of the nth substance listed, in mol/kg
Settings: 74.66 kPa, Liquid; for speed of sound: Frequency=3 MHz, Single path-length method; for mass density: Vibrating tube method

Cc1ccnc([N-]S(=O)(=O)c2ccc(N)cc2)n1.[Na+] + O
Settings | mass density, 278.15 K [kg/m3] | mass density, 283.15 K [kg/m3] | mass density, 288.15 K [kg/m3] | speed of sound, 278.15 K [m/s] | speed of sound, 283.15 K [m/s] | speed of sound, 288.15 K [m/s] | speed of sound, 293.15 K [m/s]
m1 = 0.005 | 1000.56 | 1000.28 | 999.679 | 1428.1 | 1448.9 | 1467.5 | 1483.7
m1 = 0.008 | 1000.91 | 1000.63 | 1000.02 | 1428.7 | 1449.4 | 1467.8 | 1484
m1 = 0.01 | 1001.15 | 1000.87 | 1000.25 | 1429.2 | 1449.8 | 1468.2 | 1484.4
m1 = 0.01486 | 1001.72 | 1001.42 | 1000.8 | 1430.2 | 1450.8 | 1469.3 | 1485.3
m1 = 0.02002 | 1002.33 | 1002.02 | 1001.39 | 1431 | 1451.6 | 1469.9 | 1486.1
m1 = 0.025 | 1002.91 | 1002.6 | 1001.96 | 1432.2 | 1452.7 | 1470.9 | 1487
m1 = 0.03001 | 1003.5 | 1003.18 | 1002.53 | 1433.4 | 1453.7 | 1471.8 | 1487.8
m1 = 0.035 | 1004.08 | 1003.75 | 1003.09 | 1434.2 | 1454.6 | 1472.7 | 1488.6
m1 = 0.03931 | 1004.59 | – | – | 1435.5 | – | – | –
m1 = 0.04002 | – | 1004.33 | 1003.66 | – | 1455.6 | 1473.7 | 1489.5
m1 = 0.04499 | – | – | 1004.23 | – | – | 1474.6 | 1490.3
m1 = 0.045 | 1005.25 | 1004.9 | – | 1436.4 | 1456.7 | – | –
m1 = 0.04968 | – | 1005.43 | – | – | 1457.4 | – | –
m1 = 0.05 | 1005.83 | – | 1004.8 | 1437.5 | – | 1475.4 | 1491.2
m1 = 0.05501 | – | – | 1005.37 | – | – | 1476.5 | 1492
m1 = 0.05502 | 1006.42 | 1006.05 | – | 1438.5 | 1458.5 | – | –
m1 = 0.05998 | 1007 | 1006.62 | 1005.94 | 1439.4 | 1459.4 | 1477.2 | 1492.8
